Test results published in patent publication EP0172632B1, “Benzopyrano[4,3,2-cd]indazole compounds, processes for their production and pharmaceutical compositions comprising the compounds” (WARNER-LAMBERT COMPANY, priority 1984, dated 1986).
Values after ≈ are worked out from the molar mass of the structure shown. Structures can show the parent of a compound that is named as a salt.

Key:
HCT-8 cells = assay: in vitro proliferating human colon adenocarcinoma (HCA) cell screen; type: cell-based; conditions: 60 to 65 hours with compound, 50% inhibition of growth, read-out: HCA-4 in vitro ID50
Method: One test protocol is the in vitro proliferating human colon adenocarcinoma (HCA) cell screen. In this test, HCT-8 cells (HCA cell line received from Yale University) are trypsinized using trypsin-EDTA. A single cell suspension is achieved by passing the cells through a 26 gauge needle with a 20 cc syringe. A cell suspension is prepared using RPMI 1640 + 10% FCS + 50 µg/ml gentamicin sulfate with a cell concentration of approximately 30,000 cells/ml. The cell suspension is dispensed in Linbro 24-well plates; 1 ml/well. The plates are incubated for approximately 48 hours at 37°C in a 5% CO2 atmosphere. At this time test compounds are added in the appropriate concentration. Five µl of the 200 µg/ml stock solution is added to each well in a primary test. Ten ul of the appropriate dilution is added to each well for the titration test. The plates are reincubated an additional 60 to 65 hours at 37°C in a 5% C02 atmosphere. The cells are lysed using a mix of cationic surfactant, glacial acetic acid, and sodium chloride. Two ml of the lysed cell suspension from each well is added to 8 ml of diluent. The number of nuclei is determined using a Coulter counter (ZBI model), and a percent growth for each drug concentration is calculated. From this, an IDso (molar concentration of compound that results in 50% inhibition of growth) is determined.

L1210 cells = assay: L1210 in vitro cell growth inhibition; type: cell-based; conditions: Mus musculus, 72 h; L1210 murine leukemia cells, three days incubation, 50% inhibition of growth; read-out: L1210 in vitro ID50
Method: Another test protocol uses L1210 cells, a murine leukemia cell line, grown in RPMI 1640 supplemented with 5% fetal bovine serum and gentamicin ([…]). Drug dilutions are prepared in the appropriate solvent and 20 µl of each dilution are added to 24-well Linbro tissue culture plates, followed by the addition of 2.0 ml of cell suspension containing 3 x 10^4 cells per ml. Solvent and medium controls are included in each test. After incubation at 37°C for three days in 5% CO2, the contents of each well are removed and the cells counted in a ZBI Counter counter. Percent growth are calculated relative to the controls and the levels of drug activity are expressed as ID50 in moles per liter.

Bacillus subtilis 04555 = assay: in vitro antibacterial/antifungal (ABF) agar-disk diffusion assay; type: cell-based; conditions: read-out: ABF Zone Diameter (Conc. in mg/ml) B. Sub-tilis; for zone of inhibition at 500 µg/mL: Conc. .5 mg/ml
Method: (§1) Still another test protocol is the in vitro antibacterial/antifungal (ABF) test. Compounds are tested for antimicrobial activity in an agar-disk diffusion assay, a standard microbiological technique for testing antibiotics. After incubation of each culture with a test compound, a zone of inhibition is determined. The zone diameter (mm) of active compounds ranges from a minimum of 13.5 mm to as high as 60 mm, with a greater diameter reflecting higher activity. For convenience, values are reported for two gram-negative bacteria (Aerobacter aerogenes 0126 and Escherichia coli 04863), two gram-positive bacteria (Bacillus subtilis 04555 and Streptococcus faecalis 05045 utilizing AM-09 medium), and one mycelial fungus (Penicillium avellaneum M2988).

[1] = system: Streptococcus faecalis 05045; assay: as above; type: cell-based; conditions: Enterococcus faecalis, AM-09 medium, read-out: ABF Zone Diameter (Conc. in mg/ml) S. Fae-calis; for zone of inhibition at 500 µg/mL: Conc. .5 mg/ml
Method: as §1

[2] = system: Penicillium avellaneum M2988; assay: as above; type: cell-based; conditions: Hamigera avellanea, read-out: ABF Zone Diameter (Conc. in mg/ml) P. Avell-aneum; for zone of inhibition at 3000 µg/mL: Conc. 3 mg/ml
Method: as §1

[3] = system: lymphocytic leukemia P388; assay: in vivo lymphocytic leukemia P388 test; conditions: Mus musculus, P388, ip, 120 h, mice, survival time treated/control, read-out: P388 in vivo T/C×100; for response vs control in vivo at 12.5 mg/kg: Dose 12.5 mg/kg intraperitoneally once daily for five days; for response vs control in vivo at 25 mg/kg: Dose 25 mg/kg intraperitoneally once daily for five days; for response vs control in vivo at 6.25 mg/kg: Dose 6.25 mg/kg intraperitoneally once daily for five days
Method: Another test protocol is the in vivo lymphocytic leukemia P388 test. The animals used are either male or female CD2F, mice. There are six or seven animals per test group. The tumor transplant is by intraperitoneal injection of dilute ascitic fluid containing cells of lymphocytic leukemia P388. The test compounds are administered intraperitoneally once daily for five consecutive days at various doses following tumor inoculation. The animals are weighed and survivors are recorded on a regular basis for 30 days. A compound is designated "toxic" if, at a given dose, all animals died prior to four days after the first injection of drug. A ratio of survival time for treated (T)/control (C) animals is calculated. A criterion for efficacy is a ratio T/C times 100 greater than or equal to 125. See Cancer Chemotherapy Reports, Part 3, 3, 1 (1972) for a comprehensive discussion of the protocol.

Rhodotorula aurantiaca = assay: in vitro antibacterial (ABMF) microdilution susceptibility test; type: cell-based; conditions: Buckleyzyma aurantiaca; Mueller-Hinton broth microdilution, 37°C, 16-24 hours; read-out: ABMF Minimal Inhibitory Concentration (µ/ml) R. aurant
Source text: (§2) Still another test protocol is the in vitro antibacterial (ABMF) test which is a recognized standard microdilution susceptibility procedure in Mueller-Hinton broth against Gram-positive and Gram-negative bacterial test organisms. The procedure is a modification of a state-of-the-art procedure reported in Manual of Clinical Microbiology, Lennette, E. H., ed., by Barry, A. L. and C. Thornsberry at pages 463-474 and by Gavan, T. L. and A. L. Barry at pages 459―462, American Society for Microbiology, Washington, 1980.
(§3) In the test, a given bacterial culture is used to inoculate individual test wells of microdilution trays containing growth medium and test compound, the latter in a microdilution series: 1000, 333.111, 37,12, 4, 1.4, and 0.46 micrograms per milliliter. […] For convenience, values are reported for Escherichia coli, Corynebacterium Sp. ATCC 21698, Salmonella typhimurium, Streptococcus pneumoniae, and Rhodotorula aurantiaca.

Streptococcus pneumoniae = assay: as above; type: cell-based; conditions: Mueller-Hinton broth microdilution, 37°C, 16-24 hours, read-out: ABMF Minimal Inhibitory Concentration (µ/ml) S. pneum.
Source text: as §2, §3

[4] = system: Corynebacterium Sp. ATCC 21698; assay: as above; type: cell-based; conditions: ATCC21698, Mueller-Hinton broth microdilution, 37°C, 16-24 hours, read-out: ABMF Minimal Inhibitory Concentration (µ/ml) Coryn. sp.
Source text: as §2, §3

Salmonella typhimurium = assay: as above; type: cell-based; conditions: Salmonella enterica, Mueller-Hinton broth microdilution, 37°C, 16-24 hours, read-out: ABMF Minimal Inhibitory Concentration (µ/ml) S. typh.
Source text: as §2, §3

Escherichia coli = assay: as above; type: cell-based; conditions: Mueller-Hinton broth microdilution, 37°C, 16-24 hours, read-out: ABMF Minimal Inhibitory Concentration (µ/ml) E. coli
Source text: as §2, §3

Work on `CCN(CC)CCn1nc2c3c(c([N+](=O)[O-])ccc31)Oc1ccccc1-2` [Example 1, N,N-Diethyl-5-nitro-2H-[1] benzopyrano[4,3,2-cd]indazole-2-ethanamine] yielded an IC50 (HCT-8 cells) of 1000 nM, an IC50 (L1210 cells) of 1900 nM and a zone of inhibition at 500 µg/mL (Bacillus subtilis 04555) of 14 mm. For the same molecule, the zone of inhibition at 500 µg/mL [1] was 15 mm, the zone of inhibition at 3000 µg/mL [2] was 0 mm and the response vs control in vivo at 100 mg/kg ([3]; Dose 100 mg/kg intraperitoneally once daily for five days) was 138%. For the same molecule, the response vs control in vivo at 200 mg/kg ([3]; Dose 200 mg/kg intraperitoneally once daily for five days) was 211%.
Molecule `CCN(CC)CCn1nc2c3c(c(N)ccc31)Oc1ccccc1-2` [Example 3, 5-Amino-N,N-diethyl-2H-[1]benzopyrano[4,3,2-cd]indazol-2-ethanamine] has an IC50 (HCT-8 cells) of 2400 nM and an IC50 (L1210 cells) of 1300 nM.
`O=[N+]([O-])c1ccc2c3c(nn2CCNCCO)-c2ccccc2Oc13` [Example 2, 2-[[2-(5-Nitro-2H-[1]benzopyrano[4,3,2-cd]-indazol-2-yl)ethyl]amino]ethanol, monohydrochloride] showed an IC50 (HCT-8 cells) of 500 nM, an IC50 (L1210 cells) of 400 nM and a zone of inhibition at 100 µg/mL (Bacillus subtilis 04555; Conc. .1 mg/ml) of 17 mm. For the same molecule, the zone of inhibition at 500 µg/mL [1] was 17 mm, the zone of inhibition at 100 µg/mL ([2]; Conc. .1 mg/ml) was 19 mm and the response vs control in vivo at 50 mg/kg ([3]; Dose 50 mg/kg intraperitoneally once daily for five days) was 141%.
Molecule `CCN(CC)CCn1nc2c3c(c(NCCN)ccc31)Oc1ccccc1-2` [Example 4, N-[2-[2-(Diethylamino)ethyl]-2H-[1]benzopyrano[4,3,2-cd]indazol-5-yl]ethanediamine, trihydrobromide, dihydrate] has an IC50 (HCT-8 cells) of 160 nM, an IC50 (L1210 cells) of 80 nM and a zone of inhibition at 500 µg/mL (Bacillus subtilis 04555) of 14 mm. It also gave a zone of inhibition at 3000 µg/mL ([1]; Conc. 3 mg/ml) of 16 mm, a zone of inhibition at 3000 µg/mL [2] of 0 mm and a response vs control in vivo at 12.5 mg/kg [3] of 174%. It also gave a response vs control in vivo at 25 mg/kg [3] of 216%.
In the case of `O=C(CNCCO)Nc1ccc2c3c(nn2CCNCCO)-c2cc(O)ccc2Oc13` [Example 17, 2-[2-[(2-Hydroxyethyl)amino]ethyl]-9-hydroxy-2H-[1]benzopyrano[4,3,2-cd]indazol-5-yl]-2-[(2-hydroxyethyl)amino]acetamide, hydrochloride], the IC50 (L1210 cells) is reported as 1700 nM, the MIC (Rhodotorula aurantiaca) is reported as 1000 µg/mL and the MIC (Streptococcus pneumoniae) is reported as over 1000 µg/mL. For the same molecule, the MIC [4] was 333 µg/mL, the MIC (Salmonella typhimurium) was over 1000 µg/mL and the MIC (Escherichia coli) was 1000 µg/mL. It also gave a response vs control in vivo at 60 mg/kg ([3]; Dose 60 mg/kg intraperitoneally once daily for five days) of 134%, a response vs control in vivo at 120 mg/kg ([3]; Dose 120 mg/kg intraperitoneally once daily for five days) of 142% and a response vs control in vivo at 240 mg/kg ([3]; Dose 240 mg/kg intraperitoneally once daily for five days) of 184%.
In the case of `CCN(CC)CCn1nc2c3c(c(NCCNCCO)ccc31)Oc1ccc(O)cc1-2` [Example 14], the IC50 (L1210 cells) is reported as 48 nM, the MIC (Rhodotorula aurantiaca) is reported as over 33 µg/mL and the MIC (Streptococcus pneumoniae) is reported as 11 µg/mL (≈ 25.8 µM). It also gave an MIC [4] of 33 µg/mL (≈ 77.5 µM), an MIC (Salmonella typhimurium) of over 33 µg/mL and an MIC (Escherichia coli) of 11 µg/mL (≈ 25.8 µM). For the same molecule, the response vs control in vivo at 6.25 mg/kg [3] was 236% and the response vs control in vivo at 12.5 mg/kg [3] was 272%.
`Cl.Nc1ccc2c3c(nn2CCNCCO)-c2cc(O)ccc2Oc13` [Example 16, 5-Amino-2-[2-[(2-hydroxyethyl)amino]ethyl]-2H-[1]benzopyrano[4,3,2-cd]indazol-9-ol, hydrochloride] was tested, and the IC50 (L1210 cells) was 120 nM, the MIC (Rhodotorula aurantiaca) was over 1000 µg/mL and the MIC (Streptococcus pneumoniae) was 37 µg/mL. The MIC [4] was 12.3 µg/mL, the MIC (Salmonella typhimurium) was 37 µg/mL and the MIC (Escherichia coli) was 4.1 µg/mL. For the same molecule, the response vs control in vivo at 6.25 mg/kg [3] was 165%, the response vs control in vivo at 12.5 mg/kg [3] was 200% and the response vs control in vivo at 25 mg/kg [3] was 260%.
